Source: publication PMC5601235, “In vivo characterisation of a therapeutically relevant self‐assembling ^18F‐labelled β‐sheet forming peptide and its hydrogel using positron emission tomography” (Journal of Labelled Compounds & Radiopharmaceuticals, 2017)
Where two headings read alike, the source gives them in different places. Where a SMILES comes first, the peptide text is derived from it. The star is where a group is joined. X1 = O=C(CO/N=C/c1cccnc1F)*

How the values were obtained:
[1] = Preclinical PET biodistribution of [^18F]FPCA‐F9 solution after tail‐vein injection; type: in vivo, C3H mice; conditions: C3H, mouse, iv, 13 MBq, total radioactivity, i.v. tail vein; for SUV at 1 h: 1 hour postinjection; for SUV at 20 min: 20 minutes postinjection
Description: C3H mice were anaesthetised using isoflurane induction 4% and maintained 1.5% in 70% N2O and 30% O2 mixture. [^18F]FPCA‐F9 solution was injected in the tail vein (13 MBq, n = 4) of healthy mice or [^18F]FPCA‐F9 hydrogel was injected subcutaneously into the right flank of different healthy mice (2‐5 MBq, n = 3). The acquisition protocol parameters consisted of a preliminary CT scan to determine attenuation correction factors followed by a 1‐ and 4‐hour PET acquisition time for [^18F]FPCA‐F9 solution and hydrogel, respectively. Major excretory organs, including liver, kidney and bladder as well as bone and hydrogel region (in [^18F]FPCA‐F9 hydrogel scans only), were delineated on CT and uptake was quantified as SUV.

[2] = [^18F]FPCA‐F9 preclinical metabolite analysis (SE‐HPLC of plasma, kidney, liver, urine); type: in vivo, C3H mice
Description: […] Plasma was extracted from whole blood samples using a Thermo ALC multispeed refrigerated centrifuge PK121R (8720 g, 4°C for 3 minutes). Kidney and liver samples were homogenised and centrifuged (8720 g, 4°C for 3 minutes), and the supernatant was removed for HPLC analysis. Urine samples were directly injected onto HPLC without sample preparation using a GE Superdex peptide 10/300 GL (GE Healthcare, UK) eluted with PBS (1 mL/min, 220 nm).

SUV at 1 h ([1]; bladder, n = 4, read-out: Bladder uptake): 47.4 ± 7.2 SUV | SUV at 20 min ([1]; bladder, begins to plateau, n = 4, mean ± SD, read-out: Bladder uptake): 53.4 ± 16.6 SUV | SUV at 1 h ([1]; bone, n = 4, read-out: Bone accumulation): 7.8 ± 2.5 SUV | SUV ([1]; kidney, within 5 minutes postinjection, n = 4, read-out: Kidney uptake): 5.9 ± 1.9 SUV | SUV at 5 min ([1]; liver, 5 minutes postinjection, n = 4, read-out: Liver uptake): 1.4 ± 0.1 SUV | SUV at 20 min ([1]; liver, n = 4, read-out: Liver uptake): 0.7 ± 0.1 SUV | Plasma stability (in words) ([2]; in vivo, mouse plasma, metabolite analysis by SE‐HPLC): high plasma stability | Radioactivity in second peak at ~8 minutes (larger species, aggregation or protein interaction) ([2]; liver and kidney samples, SE‐HPLC): ~ 5% | Parent ([^18F]FPCA‐F9) fraction, kidney ([2]; mouse kidney homogenate supernatant after i.v. injection of monomer, after 60 minutes, SE‐HPLC radio‐detection, mean ± SD, n = 4): 95% ± 1% | Parent ([^18F]FPCA‐F9) fraction, liver ([2]; mouse liver homogenate supernatant after i.v. injection of monomer, after 60 minutes, SE‐HPLC radio‐detection (Superdex peptide 10/300 GL, PBS), mean ± SD, n = 4): 94% ± 0% | Parent ([^18F]FPCA‐F9) fraction, plasma ([2]; mouse plasma after i.v. injection of monomer, after 60 minutes, SE‐HPLC radio‐detection, mean, n = 4): 100% | Parent ([^18F]FPCA‐F9) fraction, urine ([2]; mouse urine after i.v. injection of monomer, after 60 minutes, SE‐HPLC radio‐detection, mean ± SD, n = 4): 95% ± 1% | Radioactivity in peak at ~12 minutes (larger species) ([2]; urine samples, SE‐HPLC): 5%
Compound: NCCCC[C@H](NC(=O)[C@H](CCCCN)NC(=O)[C@H](Cc1ccccc1)NC(=O)[C@H](CCC(=O)O)NC(=O)[C@H](Cc1ccccc1)NC(=O)[C@H](CCCCN)NC(=O)[C@H](Cc1ccccc1)NC(=O)[C@H](CCC(=O)O)NC(=O)[C@H](Cc1ccccc1)NC(=O)CO/N=C/c1cccnc1F)C(=O)O [[^18F]FPCA‐F9] (X1-FEFKFEFKK-OH)
Metabolites of [^18F]FPCA‐F9 in liver, kidney, urine and plasma samples (in words) ([2]; SE‐HPLC, parent peak at ~18 minutes): none of the samples analysed showed any metabolite
